Test results reported in US5629332A, “Triazole compound and use thereof” (Nihon Nohyaku Co., Ltd., priority 1994, dated 1997).

Columns and labels:
[1] = system: Candida albicans IFO 1270; test: growth inhibition of Candida albicans IFO 1270 in culture (Test Example 1, Table 2); type: cell-based; conditions: 37° C., Sabouraud's glucose broth; for Growth inhibition ratio (%) 0.1 μg/ml / inhibition of growth at 0.1 µg/mL: final compound concentration 0.1 μg/ml; for Growth inhibition ratio (%) 0.1 μg/ml / Growth inhibition ratio (%) 10 μg/ml: 48 hrs; for Growth inhibition ratio (%) 10 μg/ml / inhibition of growth at 10 µg/mL: final compound concentration 10 μg/ml; for inhibition of growth at 0.1 µg/mL / inhibition of growth at 10 µg/mL: Candida albicans, IFO1270, 48 h; for inhibition of growth at 0.1 µg/mL: read-out: Growth inhibition ratio (%) 0.1 μg/ml; for inhibition of growth at 10 µg/mL: read-out: Growth inhibition ratio (%) 10 μg/ml
Method: A 0.1 ml portion of a cell suspension of Candida albicans IFO 1270 (1.0×10^7 cells/ml) and a 0.1 ml portion of each test compound dissolved in dimethylsulfoxide were added to 9.8 ml of Sabouraudp's glucose broth.
Final compound concentrations in the culture were 10 μg/ml or 0.1 μg/ml. After incubation On a reciprocal shaker at 37° C. for 48 hrs, growth inhibition ratio of each test compound was measured.

[2] = system: C. albicans IFO 1270; test: survival of mice after intravenous inoculation with C. albicans, oral treatment (Test Example 2, Table 3); type: in vivo; conditions: 10 mg/kg orally once a day for 3 consecutive days, 10 days after inoculation, male ddy mice; for responders at 10 mg/kg: Candida albicans, IFO1270, po, 240 h, read-out: Survival ratio (%)
Method: Male ddy mice at six weeks of age were divided into a control group of 10 animals and drug administration groups of 5 animals each.
Subculture was carried out at 37° C. for 24 hrs Sabouraudp's glucose agar (manufactured by Difco laboratory).
A cell suspension of C. albicans IFO 1270 (2.5×10^7 cells/ml) was intravenously inoculated in an amount of 4 ml/kg, and each test compound was orally administered in a dose of 10 mg/kg once a day for 3 consecutive days. Examination of survival ratio was carried out 10 days after the inoculation of fungi.

Molecule	Growth inhibition ratio (%) 0.1 μg/ml [1] [%]	Growth inhibition ratio (%) 10 μg/ml [1] [%]	Survival ratio (%) [2] [%]	inhibition of growth at 0.1 µg/mL [1] [%]	inhibition of growth at 10 µg/mL [1] [%]	responders at 10 mg/kg [2] [%]
2-(2,4-difluorophenyl)-2-[1-methyl-2-(4-fluorophenyl)-ethyl]-1-triazolyl-2-ethanol [compound 11]	45	74	60	–	–	–
CC(=O)N1CCN(c2ccc(OC[C@H]3CO[C@](Cn4ccnc4)(c4ccc(Cl)cc4Cl)O3)cc2)CC1 (relative stereo) [Control drug A, cis1-acetyl-4-[4-[[2-(2,4-dichlorophenyl)-2-(imidazol-1-ylmethyl)-1,3-dioolan-4-yl]methoxy]phenyl]piperazine, reference compound]	–	–	–	59	77	20
CC(Cc1ccc(C#N)cc1)C(O)(Cn1cncn1)c1ccc(F)cc1F (single isomer, unassigned) [compound 8, 1-triazolyl-2-(2,4-difluorophenyl)-3-methyl-4-(4-cyanophenyl)-2-butanol]	–	–	–	59	78	100
CC(Cc1ccc(F)cc1)C(O)(Cn1cncn1)c1ccc(F)cc1F (centres unmarked) [Compound No. 1]	–	–	–	71	85	80
CC(Cc1ccc(OC(F)(F)F)cc1)C(O)(Cn1cncn1)c1ccc(F)cc1F (centres unmarked) [Compound No. 10]	–	–	–	–	–	100
CC(CCCc1ccc(Cl)cc1)C(O)(Cn1cncn1)c1ccc(F)cc1F (centres unmarked) [compound 2]	–	–	–	60	76	80
CC(CCCc1ccc(Cl)cc1)C(O)(Cn1cncn1)c1ccc(F)cc1F (centres unmarked) [compound 3]	58	74	60	–	–	–
CC(CSc1ccc(F)cc1)C(O)(Cn1cncn1)c1ccc(F)cc1 (centres unmarked) [compound 4, 1-triazolyl-2-(4-fluorophenyl)-3-methyl-4-(4-fluorophenyl)-mercapto-2-butanol]	–	–	–	6	72	0
CC(CSc1nccn1C)C(O)(Cn1cncn1)c1ccc(F)cc1 (centres unmarked) [compound 5]	–	–	–	5	10	0
CC(Cc1ccc(C#N)cc1)C(O)(Cn1cncn1)c1ccc(F)cc1F (centres unmarked) [compound 7, 1-triazolyl-2-(2,4-difluorophenyl)-3-methyl-4-(4-cyanophenyl)-2-butanol]	–	–	–	53	74	100
CC(Cn1cncn1)C(O)(Cn1cncn1)c1ccc(F)cc1 (centres unmarked) [compound 14]	–	–	–	2	20	20
CC(Cc1ccc(-n2cncn2)cc1)C(O)(Cn1cncn1)c1ccc(F)cc1F (centres unmarked) [compound 15]	–	–	100	53	66	–
CC(Cc1ccc(-n2cncn2)cc1)C(O)(Cn1cncn1)c1ccc(F)cc1F (centres unmarked) [compound 16]	–	–	100	–	–	–
CC(Cc1ccc(-n2cncn2)cc1)C(O)(Cn1cncn1)c1ccc(F)cc1F (centres unmarked) [compound 17]	–	–	60	–	–	–
CC(Cc1cccnc1)C(O)(Cn1cncn1)c1ccc(F)cc1F (centres unmarked) [compound 18]	–	–	–	–	–	40
CC(Cc1ccc(Cl)cc1SC(F)F)C(O)(Cn1cncn1)c1ccc(F)cc1F (centres unmarked) [compound 20]	–	–	–	53	68	100
CC(Cc1ccc([N+](=O)[O-])cc1)C(O)(Cn1cncn1)c1ccc(F)cc1F (centres unmarked) [compound 22]	–	–	–	58	70	100
CC(CCc1ccc(F)cc1)C(O)(Cn1cncn1)c1ccc(F)cc1F (centres unmarked) [compound 25]	–	–	–	60	70	–
CC(Cc1ccc(C=NNC=O)cc1)C(O)(Cn1cncn1)c1ccc(F)cc1F (centres unmarked) [compound 27]	–	–	–	–	–	40
CC(Cc1ccc(Cl)cc1Cl)C(O)(Cn1cncn1)c1ccc(F)cc1F (centres unmarked) [compound 28]	–	–	–	–	–	100
CC(Cc1ccc(S(C)(=O)=O)cc1)C(O)(Cn1cncn1)c1ccc(F)cc1F (centres unmarked) [compound 30]	–	–	–	6	63	100
CC(Cc1ccc(-n2cnn(C)c2=O)cc1)C(O)(Cn1cncn1)c1ccc(F)cc1F (centres unmarked) [compound 31]	–	–	–	–	–	80
CC(Cc1ccc(F)cc1F)C(O)(Cn1cncn1)c1ccc(F)cc1F (centres unmarked) [compound 32]	–	–	–	–	–	80
CC(CCc1ccc(C#N)cc1)C(O)(Cn1cncn1)c1ccc(F)cc1F (centres unmarked) [compound 35]	–	–	–	60	74	–
CC(CCc1ccc(-n2cncn2)cc1)C(O)(Cn1cncn1)c1ccc(F)cc1F (centres unmarked) [compound 37, 2-(2,4-difluorophenyl)-3-methyl-5-(4-triazolphenyl)-1-triazolyl-pentan-2-ol]	–	–	–	–	–	80
CSc1cc(Cl)ccc1CC(C)C(O)(Cn1cncn1)c1ccc(F)cc1F (centres unmarked) [compound 39]	–	–	–	53	68	100
CC(Cc1ccc(C(F)(F)F)cc1)C(O)(Cn1cncn1)c1ccc(F)cc1F (centres unmarked) [compound 43]	–	–	–	–	–	100
